# Source: US6392083B1, “Process for producing salts of cyanobenzylamines” (Showa Denko K.K., priority 1999, dated 2002)
# Assays:
# [1] = Bulk density measured with Powder-tester Type PT-N; type: physicochemical; conditions: dried salt powder; Powder-tester Type PT-N (Hosokawa Micron); hydrochloride
# Method: The bulk density was measured with a Powder-tester Type PT-N (product of Hosokawa Micron).
# [2] = Source text: These two compounds are difficult to separate through distillation due to the small difference between their respective boiling points.
SMILES,bulk density [1],water solubility [2]
"Cl.N#Cc1ccc(CN)cc1 [Comparative Example, p-Cyanobenzylamine hydrochloride, reference compound]",0.2 g/mL,
"Cl.N#Cc1ccc(CN)cc1 [Example 7, p-cyanobenzylamine hydrochloride]",0.5 g/mL,
"Cl.N#Cc1ccc(CN)cc1 [Example 1, p-cyanobenzylamine hydrochloride]",0.3 g/mL,
Cl.N#Cc1ccc(CN)cc1 [p-cyanobenzylamine hydrochloride],,much lower than that of p-xylylenediamine hydrochloride
